Literature values, collected in US20030069213A1, “ORAL PREPARATION” (priority 1997, published 2003).
Values after ≈ are worked out from the molar mass of the structure shown. Where a name gives a salt, the structure may show the parent alone. Read-outs that look alike come from different tables or passages of the source.

Legend:
[1] = not given; remark: listed apart in the source
[2] = dissolved in water

For `NC[C@H]1CC[C@H](C(=O)Oc2ccc(CCC(=O)O)cc2)CC1` [cetraxate hydrochloride], the “pKa (amino group)” value is given as 10.5, the “pKa (carboxyl group)” value is given as 4.5 and the solubility in water ([1]; pH 2.8, 22° C.) is given as 27 mg/mL. For the same molecule, the solubility in water ([1]; pH 5.9, 22° C.) was 0.4 mg/mL.

In the case of `OC[C@@H](O)[C@@H](O[C@H]1O[C@H](CO)[C@@H](O)[C@H](O)[C@H]1O)[C@H](O)[C@@H](O)CO` [maltitol], the heat of dissolution [2] is listed as -5.5 cal/g and the heat of dissolution ([2]; listed as Maltitol) is listed as “Maltitol (−5.5) cal/g”.

For `Clc1ccccc1CN1CCc2sccc2C1` [ticlopidine hydrochloride], the pKa is listed as 6.93.

In the case of `OC[C@@H](O)[C@@H](O)CO` [erythritol], the heat of dissolution [2] is given as -42.9 cal/g.

In the case of `OC[C@@H](O)[C@@H](O)[C@H](O)[C@H](O)CO` [mannitol], the heat of dissolution [2] is listed as -28.9 cal/g and the heat of dissolution ([2]; listed as D-Mannitol) is listed as “(−28.9) cal/g”.

For `OC[C@H]1O[C@@](CO)(O[C@H]2O[C@H](CO)[C@@H](O)[C@H](O)[C@H]2O)[C@@H](O)[C@@H]1O` [sucrose], the heat of dissolution [2] is given as -4.5 cal/g and the heat of dissolution ([2]; listed as Sucrose) is given as “Sucrose (−4.5) cal/g”.

In the case of `OC[C@@H](O)[C@H](O)[C@@H](O)CO` [xylitol], the heat of dissolution [2] is listed as -35 cal/g and the heat of dissolution ([2]; listed as Xylitol) is listed as “Xylitol (−35) cal/g”.

For `NC[C@H]1CC[C@H](C(=O)O)CC1` [tranexamic acid], the “pKa (amino group)” value is listed as 10.65 and the “pKa (carboxyl group)” value is listed as 4.33.

In the case of `OC[C@@H](O)[C@@H](O)[C@H](O)[C@@H](O)CO` [sorbitol], the heat of dissolution [2] is listed as -24.1 cal/g and the heat of dissolution ([2]; listed as D-Sorbitol) is listed as “(−24.1) cal/g”.

In the case of `CN/C(=N/CCSCc1nc[nH]c1C)NC#N` [cimetidine], the pKa is listed as 7.1, the solubility in water ([1]; pH 6.5, 25° C.) is listed as 30 mg/mL (≈ 119 mM) and the solubility in water ([1]; pH 8.3, 25° C.) is listed as 5.3 mg/mL (≈ 21 mM).
